Assay results from PubChem BioAssay AID1963848 (Molecular Pharmacology Branch, DTP, NCI, 2024).

Test system: 379773-124-R-J2-PDC spheroid viability
Test: Anticancer human tumor 379773-124-R-J2-PDC patient-derived endometrial carcinoma cell line growth inhibition [POLQ]
Settings: spheroids with HUVEC and MSC; for IC50: curve of first compound; for viability, T/C: stronger effect = lower value
Procedure, shortened: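 Growth inhibition in 3D: complex spheroids (tumor PDC, HUVEC, MSC) treated with POLQ inhibitor combinations; where Cmax unknown, highest tested concentration 10 microM, except SN-38 at 1 microM.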

[1] = second compound 0.0316 µM, first compound 0.0316 µM
[2] = second compound 0.0316 µM, first compound 0.1 µM
[3] = second compound 0.0316 µM, first compound 0.316 µM
[4] = second compound 0.0316 µM, first compound 1 µM
[5] = second compound 0.0316 µM, first compound 3.16 µM
[6] = second compound 0.0316 µM, first compound 10 µM
[7] = second compound 0.1 µM, first compound 0.0316 µM
[8] = second compound 0.1 µM, first compound 0.1 µM
[9] = second compound 0.1 µM, first compound 0.316 µM
[10] = second compound 0.1 µM, first compound 1 µM
[11] = second compound 0.1 µM, first compound 3.16 µM
[12] = second compound 0.1 µM, first compound 10 µM
[13] = second compound 0.316 µM, first compound 0.0316 µM
[14] = second compound 0.316 µM, first compound 0.1 µM
[15] = second compound 0.316 µM, first compound 0.316 µM
[16] = second compound 0.316 µM, first compound 1 µM
[17] = second compound 0.316 µM, first compound 3.16 µM
[18] = second compound 0.316 µM, first compound 10 µM
[19] = second compound 1 µM, first compound 0.0316 µM
[20] = second compound 1 µM, first compound 0.1 µM
[21] = second compound 1 µM, first compound 0.316 µM
[22] = second compound 1 µM, first compound 1 µM
[23] = second compound 1 µM, first compound 3.16 µM
[24] = second compound 1 µM, first compound 10 µM
[25] = second compound 3.16 µM, first compound 0.0316 µM
[26] = second compound 3.16 µM, first compound 0.1 µM
[27] = second compound 3.16 µM, first compound 0.316 µM
[28] = second compound 3.16 µM, first compound 1 µM
[29] = second compound 3.16 µM, first compound 3.16 µM
[30] = second compound 3.16 µM, first compound 10 µM
[31] = second compound 10 µM, first compound 0.0316 µM
[32] = second compound 10 µM, first compound 0.1 µM
[33] = second compound 10 µM, first compound 0.316 µM
[34] = second compound 10 µM, first compound 1 µM
[35] = second compound 10 µM, first compound 3.16 µM
[36] = second compound 10 µM, first compound 10 µM
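Note: spheroids exposed to drugs for seven days before readout.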
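Throughout, for viability, T/C: percent viability relative to DMSO vehicle control taken as 100%.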

COc1cccc2c1C(=O)c1c(O)c3c(c(O)c1C2=O)CC(O)(C(=O)CO)CC3OC1CC(N)C(O)C(C)O1 (centres undefined) + COC1C(OC(N)=O)C(O)C(Oc2ccc3c(O)c(NC(=O)c4ccc(O)c(CC=C(C)C)c4)c(=O)oc3c2C)OC1(C)C
IC50 (second compound 0.0316 µM): 56.8 nM
IC50 (second compound 0.1 µM): 64.4 nM
IC50 (second compound 0.316 µM): 66 nM
IC50 (second compound 1 µM): 61.8 nM
IC50 (second compound 3.16 µM): 55.6 nM
IC50 (second compound 10 µM): 58.5 nM
viability, T/C [1]: 77.5%
viability, T/C [2]: 23.3%
viability, T/C [3]: 6.61%
viability, T/C [4]: 6.45%
viability, T/C [5]: 0.84%
viability, T/C [6]: 0.73%
viability, T/C [7]: 85.7%
viability, T/C [8]: 27.9%
viability, T/C [9]: 6.63%
viability, T/C [10]: 6.52%
viability, T/C [11]: 1%
viability, T/C [12]: 0.1%
viability, T/C [13]: 83.4%
viability, T/C [14]: 31.3%
viability, T/C [15]: 8.56%
viability, T/C [16]: 7.02%
viability, T/C [17]: 1.52%
viability, T/C [18]: 1.06%
viability, T/C [19]: 82.8%
viability, T/C [20]: 26.2%
viability, T/C [21]: 8.01%
viability, T/C [22]: 5.55%
viability, T/C [23]: 1.26%
viability, T/C [24]: 0.1%
viability, T/C [25]: 75.7%
viability, T/C [26]: 23.2%
viability, T/C [27]: 6.39%
viability, T/C [28]: 6.03%
viability, T/C [29]: 1.65%
viability, T/C [30]: 0.73%
viability, T/C [31]: 84%
viability, T/C [32]: 19.4%
viability, T/C [33]: 7.68%
viability, T/C [34]: 5.68%
viability, T/C [35]: 0.98%
viability, T/C [36]: 0.19%

COc1cc2cc(C(=O)CCC(=O)O)sc2cc1OC + Nc1ccc(C#CCN(C(=O)Cc2ncc(C(F)(F)F)cc2C(F)(F)F)c2ccc(F)cc2)nn1
IC50 (second compound 0.0316 µM): > 10000 nM
IC50 (second compound 0.1 µM): > 10000 nM
IC50 (second compound 0.316 µM): > 10000 nM
IC50 (second compound 1 µM): > 10000 nM
IC50 (second compound 3.16 µM): > 10000 nM
IC50 (second compound 10 µM): > 10000 nM
viability, T/C [1]: 84.3%
viability, T/C [2]: 97.2%
viability, T/C [3]: 87.6%
viability, T/C [4]: 93.6%
viability, T/C [5]: 93.9%
viability, T/C [6]: 82.7%
viability, T/C [7]: 93.9%
viability, T/C [8]: 86%
viability, T/C [9]: 91.8%
viability, T/C [10]: 85.5%
viability, T/C [11]: 104%
viability, T/C [12]: 92.7%
viability, T/C [13]: 101%
viability, T/C [14]: 82.6%
viability, T/C [15]: 93.7%
viability, T/C [16]: 93.3%
viability, T/C [17]: 85.6%
viability, T/C [18]: 96%
viability, T/C [19]: 94.8%
viability, T/C [20]: 84%
viability, T/C [21]: 96.3%
viability, T/C [22]: 87.8%
viability, T/C [23]: 96.4%
viability, T/C [24]: 85.3%
viability, T/C [25]: 98.9%
viability, T/C [26]: 83.4%
viability, T/C [27]: 82.4%
viability, T/C [28]: 105%
viability, T/C [29]: 90.1%
viability, T/C [30]: 104%
viability, T/C [31]: 96.2%
viability, T/C [32]: 89.6%
viability, T/C [33]: 86.4%
viability, T/C [34]: 89.3%
viability, T/C [35]: 84.9%
viability, T/C [36]: 93.5%
